Test results as given in article PMC8151732, “Thiazole–Chalcone Hybrids as Prospective Antitubercular and Antiproliferative Agents: Design, Synthesis, Biological, Molecular Docking Studies and In Silico ADME Evaluation” (Molecules, 2021).
≈ marks a conversion by molar mass, not a printed value. Read-outs that look alike come from different tables or passages of the source.

Tests used:
[1] = test system: normal human liver cell lines (L02); test: Cytotoxic activity on normal cells, MTT assay; type: cell-based; conditions: for IC50: Homo sapiens, same protocol as DU-145, read-out: Normal Liver Cell Line (L02) (IC50 in µg/mL)
Method: (§1) In both the assays, the IC50 values of the tested compounds were compared with the positive control Methotrexate (Mtx). The reduction of the soluble MTT to blue-color formazan is the principle underlined in MTT assay and such change is chiefly due to the action of intracellular mitochondrial reductase in the living cells. […] Later, the desired concentrations of the compounds were achieved by dissolving in sterile water. The cells were transferred on to 96-well plates at 100 µL total volume and with a density of 1 × 10^4 cells per well. The cells were permitted to adhere for a period of 24 h and then the assay medium was replaced with a fresh medium containing target compounds and incubated in DMEM with 10% fetal bovine serum (FBS) medium at 37 °C for an additional 48 h. Later, the medium was replaced with 90 μL of fresh DMEM without FBS. The above wells were treated with 10 μL of MTT reagent (5 mg/mL of stock solution in DMEM without FBS) and incubated for 3–4 h at 37 °C. The formed blue formazan crystals were dissolved in 200 μL of DMSO. The optical density was then determined at 570 nm using a micro plate reader. The assay was executed in triplicate for three independent experiments. […] The IC50 values measured in µg/mL for the antiproliferative were converted and expressed in µM. Additionally, all the compounds were also assessed for their cytotoxic activity on the normal human liver cell lines (L02) using the same protocol discussed above.

[2] = test system: Mycobacterium tuberculosis H37Rv strain; test: Antitubercular activity, broth dilution MIC; type: cell-based; conditions: for MIC: Mycobacterium tuberculosis, H37RV, 504 h, read-out: Mtb (H37Rv Strain) (MIC in µM); for MIC / Mtb (H37Rv Strain) (MIC in µM): broth dilution, 21 days at 37 °C, mean of three independent experiments, converted from µg/mL; for antitubercular activity of F compounds over the Cl-containing compounds: MIC 20.68 µM (9, 11) vs. 78.46 µM (1, 3); for antitubercular potency relative to the standard pyrazinamide: ratio of MICs, pyrazinamide MIC 25.34 ± 2 µM
[3] = test system: prostate cancer cell line (DU-145); test: Antiproliferative activity, MTT assay; conditions: mean ± SD (n = 3), converted from µg/mL
Method: as §1

[4] = Homo sapiens, DU-145, 48 h, read-out: Prostate Cancer Cell Line (DU-145) (IC50 in µM), MTT, 48 h
[5] = read-out: Prostate Cancer Cell Line (DU-145) (IC50 in µM), MTT, 48 h

O=C(/C=C/c1sc(Cl)nc1Cl)c1ccccc1Cl [Compound 1, (E)-1-(2-chlorophenyl)-3-(2,4-dichlorothiazol-5-yl)prop-2-en-1-one]
melting point: 80 °C
IC50 [1]: > 70 µg/mL
MIC [2]: 78.5 ± 1 µM (≈ 25 µg/mL)
IC50 [3, 4]: 100 ± 2 µM

O=C(/C=C/c1sc(Cl)nc1Cl)c1cccc(Cl)c1 [Compound 2, (E)-1-(3-chlorophenyl)-3-(2,4-dichlorothiazol-5-yl)prop-2-en-1-one]
melting point: 88 °C
IC50 [1]: > 70 µg/mL
MIC [2]: 313.9 ± 1 µM (≈ 100 µg/mL)
IC50 [3, 4]: 1607 ± 2 µM

O=C(/C=C/c1sc(Cl)nc1Cl)c1ccc(Cl)cc1 [Compound 3, (E)-1-(4-chlorophenyl)-3-(2,4-dichlorothiazol-5-yl)prop-2-en-1-one]
melting point: 104 °C
IC50 [1]: > 70 µg/mL
MIC [2]: 78.5 ± 1 µM (≈ 25 µg/mL)
IC50 [3, 4]: 401.8 ± 1 µM

O=C(/C=C/c1sc(Cl)nc1Cl)c1cccc(Cl)c1Cl [Compound 4, (E)-1-(2,3-dichlorophenyl)-3-(2,4-dichlorothiazol-5-yl)prop-2-en-1-one]
melting point: 89 °C
IC50 [1]: > 70 µg/mL
MIC [2]: 142 ± 2 µM (≈ 50 µg/mL)
IC50 [3, 4]: 181.3 ± 1 µM

O=C(/C=C/c1sc(Cl)nc1Cl)c1cc(Cl)ccc1Cl [Compound 6, (E)-1-(2,5-dichlorophenyl)-3-(2,4-dichlorothiazol-5-yl)prop-2-en-1-one]
melting point: 84 °C
IC50 [1]: > 70 µg/mL
MIC [2]: 141.6 ± 1 µM (≈ 50 µg/mL)
IC50 [3, 4]: 2900.5 ± 2 µM

O=C(/C=C/c1sc(Cl)nc1Cl)c1ccc(Cl)c(Cl)c1 [Compound 8, (E)-1-(3,4-dichlorophenyl)-3-(2,4-dichlorothiazol-5-yl)prop-2-en-1-one]
melting point: 106 °C
IC50 [1]: > 70 µg/mL
MIC [2]: 141.6 ± 1 µM (≈ 50 µg/mL)
IC50 [3, 4]: 1450.3 ± 1 µM

O=C(/C=C/c1sc(Cl)nc1Cl)c1ccccc1F [Compound 9, (E)-1-(2-fluorophenyl)-3-(2,4-dichlorothiazol-5-yl)prop-2-en-1-one]
melting point: 91 °C
IC50 [1]: > 70 µg/mL
antitubercular activity of F compounds over the Cl-containing compounds [2]: 3.79 fold
MIC [2]: 20.7 ± 2 µM (≈ 6.25 µg/mL)
IC50 [3, 4]: 53 ± 2 µM

O=C(/C=C/c1sc(Cl)nc1Cl)c1cccc(F)c1 [Compound 10, (E)-1-(3-fluorophenyl)-3-(2,4-dichlorothiazol-5-yl)prop-2-en-1-one]
melting point: 112 °C
IC50 [1]: > 70 µg/mL
MIC [2]: 165.5 ± 1 µM (≈ 50 µg/mL)
IC50 [3, 4]: 423.6 ± 2 µM
IC50 [3, 5]: 847.3 ± 2 µM

O=C(/C=C/c1sc(Cl)nc1Cl)c1ccc(F)cc1 [Compound 11, (E)-1-(4-fluorophenyl)-3-(2,4-dichlorothiazol-5-yl)prop-2-en-1-one]
melting point: 126 °C
IC50 [1]: > 70 µg/mL
antitubercular activity of F compounds over the Cl-containing compounds [2]: 3.79 fold
MIC [2]: 20.7 ± 2 µM (≈ 6.25 µg/mL)
Mtb (H37Rv Strain) (MIC in µM) [2]: 20.68 ± 1 µM
IC50 [3, 4]: 847.3 ± 2 µM
IC50 [3, 5]: 423.6 ± 2 µM

O=C(/C=C/c1sc(Cl)nc1Cl)c1ccc(F)cc1F [Compound 12, (E)-1-(2,4-difluorophenyl)-3-(2,4-dichlorothiazol-5-yl)prop-2-en-1-one]
melting point: 134 °C
IC50 [1]: > 70 µg/mL
MIC [2]: 2.43 µM (≈ 0.778 µg/mL)
Mtb (H37Rv Strain) (MIC in µM) [2]: 2.43 ± 1 µM
antitubercular potency relative to the standard pyrazinamide [2]: 10.42 times
IC50 [3, 4]: 100 ± 1 µM

O=C(/C=C/c1sc(Cl)nc1Cl)c1cc(F)ccc1F [Compound 13, (E)-1-(2,5-difluorophenyl)-3-(2,4-dichlorothiazol-5-yl)prop-2-en-1-one]
melting point: 129 °C
IC50 [1]: > 70 µg/mL
MIC [2]: 39 ± 1 µM (≈ 12.5 µg/mL)
IC50 [3, 4]: 3198.7 ± 2 µM

O=C(/C=C/c1sc(Cl)nc1Cl)c1c(F)cccc1F [Compound 14, (E)-1-(2,6-difluorophenyl)-3-(2,4-dichlorothiazol-5-yl)prop-2-en-1-one]
melting point: 141 °C
IC50 [1]: > 70 µg/mL
MIC [2]: 9.74 ± 2 µM (≈ 3.12 µg/mL)
antitubercular potency relative to the standard pyrazinamide [2]: 2.6 times
IC50 [3, 4]: 25 ± 2 µM

O=C(/C=C/c1sc(Cl)nc1Cl)c1ccc(F)c(F)c1 [Compound 15, (E)-1-(3,4-difluorophenyl)-3-(2,4-dichlorothiazol-5-yl)prop-2-en-1-one]
melting point: 145 °C
IC50 [1]: > 70 µg/mL
MIC [2]: 39 ± 1 µM (≈ 12.5 µg/mL)
IC50 [3, 4]: 799.7 ± 1 µM

O=C(/C=C/c1sc(Cl)nc1Cl)c1cc(F)cc(F)c1 [Compound 16, (E)-1-(3,5-difluorophenyl)-3-(2,4-dichlorothiazol-5-yl)prop-2-en-1-one]
melting point: 109 °C
IC50 [1]: > 70 µg/mL
MIC [2]: 156 ± 2 µM (≈ 50 µg/mL)
IC50 [3, 4]: 3198.7 ± 1 µM

O=C(/C=C/c1sc(Cl)nc1Cl)c1ccccn1 [Compound 17, (E)-3-(2,4-dichlorothiazol-5-yl)-1-(pyridin-2-yl)prop-2-en-1-one]
melting point: 156 °C
IC50 [1]: > 70 µg/mL
MIC [2]: 350.7 ± 2 µM (≈ 100 µg/mL)
IC50 [3, 4]: 14 ± 1 µM

O=C(/C=C/c1sc(Cl)nc1Cl)c1cccnc1 [Compound 18, (E)-3-(2,4-dichlorothiazol-5-yl)-1-(pyridin-3-yl)prop-2-en-1-one]
melting point: 162 °C
IC50 [1]: > 70 µg/mL
MIC [2]: 701.4 ± 1 µM (≈ 200 µg/mL)
IC50 [3, 4]: 28.1 ± 1 µM

O=C(/C=C/c1sc(Cl)nc1Cl)c1ccncc1 [Compound 19, (E)-3-(2,4-dichlorothiazol-5-yl)-1-(pyridin-4-yl)prop-2-en-1-one]
melting point: 177 °C
IC50 [1]: > 70 µg/mL
MIC [2]: 350.7 ± 2 µM (≈ 100 µg/mL)
IC50 [3, 4]: 14 ± 1 µM

O=C(/C=C/c1sc(Cl)nc1Cl)c1nccs1 [Compound 20, (E)-3-(2,4-dichlorothiazol-5-yl)-1-(thiazol-2-yl)prop-2-en-1-one]
melting point: 127 °C
IC50 [1]: > 70 µg/mL
MIC [2]: 343.4 ± 1 µM (≈ 100 µg/mL)
IC50 [3, 4]: 6.86 ± 1 µM

CN(Cc1cnc2nc(N)nc(N)c2n1)c1ccc(C(=O)N[C@@H](CCC(=O)O)C(=O)O)cc1 [Methotrexate, reference compound]
IC50 [1]: > 70 µg/mL
IC50 [3, 4]: 11 ± 1 µM

NC(=O)c1cnccn1 [Pyrazinamide, reference compound]
MIC [2]: 25.3 µM (≈ 3.12 µg/mL)
Mtb (H37Rv Strain) (MIC in µM) [2]: 25.34 ± 2 µM

(E)-1-(2,4-dichlorophenyl)-3-(2,4-dichlorothiazol-5-yl)prop-2-en-1-one [Compound 5]
Normal Liver Cell Line (L02) (IC50 in µg/mL) ([1]; same protocol as DU-145): >70 µg/mL
Mtb (H37Rv Strain) (MIC in µM) [2]: 35.40 ± 2 µM
IC50 [3, 5]: 90.6 ± 1 µM
